“And” between values parts separate entries of the source, which are not always exact repeats. Identical values can stand only once. Toxic doses and inconclusive results are not listed. Rule as the data show it: active = T/C of 150% or more; inactive = T/C below 125%.
Tested on: L1210 leukemia ip in BDF1 mice, survival T/C
Experiment: NCI In Vivo Anticancer Drug Screen. Data for tumor model L1210 Leukemia (intraperitoneal) in B6D2F1 (BDF1) mice
Conditions: endpoint: mean survival time, higher = longer survival
Method in brief: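 Transplanted-tumor mice were given test agent; controls received vehicle only. Survival readings from the two groups were divided (treated over control).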

[1] = dose: 100.0 mg/kg/injection, schedule: Q01DX001 (ip), vehicle: carboxymethylcellulose (CMC)
[2] = dose: 200.0 mg/kg/injection, schedule: Q01DX001 (ip), vehicle: carboxymethylcellulose (CMC)
[3] = dose: 25.0 mg/kg/injection, schedule: Q01DX009 (ip), vehicle: saline
[4] = dose: 50.0 mg/kg/injection, schedule: Q01DX009 (ip), vehicle: saline
[5] = dose: 50.0 mg/kg/injection, schedule: Q04DX003 (ip), vehicle: saline
[6] = dose: 100.0 mg/kg/injection, schedule: Q04DX003 (ip), vehicle: saline
[7] = dose: 100.0 mg/kg/injection, schedule: Q04DX003 (ip), vehicle: Klucel (hydroxypropylcellulose) (HPC)
[8] = dose: 100.0 mg/kg/injection, schedule: Q04DX003 (ip), vehicle: saline with Tween-80
[9] = dose: 200.0 mg/kg/injection, schedule: Q04DX003 (ip), vehicle: saline with Tween-80
[10] = dose: 400.0 mg/kg/injection, schedule: Q04DX003 (ip), vehicle: saline with Tween-80
[11] = dose: 100.0 mg/kg/injection, schedule: Q01DX009 (ip), vehicle: saline
[12] = dose: 200.0 mg/kg/injection, schedule: Q04DX003 (ip), vehicle: Klucel (hydroxypropylcellulose) (HPC)
[13] = dose: 400.0 mg/kg/injection, schedule: Q04DX003 (ip), vehicle: Klucel (hydroxypropylcellulose) (HPC)
[14] = dose: 75.0 mg/kg/injection, schedule: Q01DX009 (ip), vehicle: Klucel (hydroxypropylcellulose) (HPC)
[15] = dose: 150.0 mg/kg/injection, schedule: Q01DX009 (ip), vehicle: Klucel (hydroxypropylcellulose) (HPC)
[16] = dose: 300.0 mg/kg/injection, schedule: Q01DX009 (ip), vehicle: Klucel (hydroxypropylcellulose) (HPC)

Measured: T/C

Cc1cc2ccccn2c1C(=O)c1ccccc1
inactive: [1] 107 % of control | dose: 100.0 mg/kg/injection, schedule: Q01DX009 (ip), vehicle: carboxymethylcellulose (CMC) 106 % of control | dose: 100.0 mg/kg/injection, schedule: Q04DX002 (ip), vehicle: carboxymethylcellulose (CMC) 98 % of control and 102 % of control | dose: 100.0 mg/kg/injection, schedule: Q04DX003 (ip), vehicle: carboxymethylcellulose (CMC) 102 % of control | [2] 98 % of control | dose: 200.0 mg/kg/injection, schedule: Q01DX009 (ip), vehicle: carboxymethylcellulose (CMC) 96 % of control and 106 % of control | dose: 200.0 mg/kg/injection, schedule: Q04DX002 (ip), vehicle: carboxymethylcellulose (CMC) 94 % of control and 107 % of control | dose: 200.0 mg/kg/injection, schedule: Q04DX003 (ip), vehicle: carboxymethylcellulose (CMC) 102 % of control | dose: 400.0 mg/kg/injection, schedule: Q01DX001 (ip), vehicle: carboxymethylcellulose (CMC) 98 % of control | dose: 400.0 mg/kg/injection, schedule: Q01DX009 (ip), vehicle: carboxymethylcellulose (CMC) 95 % of control and 102 % of control | dose: 400.0 mg/kg/injection, schedule: Q04DX002 (ip), vehicle: carboxymethylcellulose (CMC) 93 % of control and 102 % of control | dose: 400.0 mg/kg/injection, schedule: Q04DX003 (ip), vehicle: carboxymethylcellulose (CMC) 102 % of control

CC(C)CC(N)C(=O)NNc1ccccc1 (stereo not drawn)
inactive: dose: 75.0 mg/kg/injection, schedule: Q01DX001 (ip), vehicle: saline 101 % of control | dose: 150.0 mg/kg/injection, schedule: Q01DX001 (ip), vehicle: saline 103 % of control | dose: 300.0 mg/kg/injection, schedule: Q01DX001 (ip), vehicle: saline 108 % of control

CC(C(=O)N1c2ccccc2Sc2ccccc21)[N+](C)(C)C (stereo not drawn)
inactive: dose: 12.5 mg/kg/injection, schedule: Q04DX003 (ip), vehicle: saline 112 % of control | [3] 100 % of control | dose: 25.0 mg/kg/injection, schedule: Q04DX003 (ip), vehicle: saline 98 % of control | [4] 102 % of control | [5] 104 % of control | [6] 104 % of control

CC(C)CCSc1ccccc1
inactive: dose: 18.75 mg/kg/injection, schedule: Q01DX009 (ip), vehicle: acetone 91 % of control | dose: 37.5 mg/kg/injection, schedule: Q01DX009 (ip), vehicle: acetone 92 % of control | dose: 37.5 mg/kg/injection, schedule: Q04DX003 (ip), vehicle: acetone 100 % of control | dose: 75.0 mg/kg/injection, schedule: Q01DX001 (ip), vehicle: acetone 100 % of control | dose: 75.0 mg/kg/injection, schedule: Q01DX009 (ip), vehicle: acetone 91 % of control | dose: 75.0 mg/kg/injection, schedule: Q04DX003 (ip), vehicle: acetone 90 % of control | dose: 150.0 mg/kg/injection, schedule: Q01DX001 (ip), vehicle: acetone 94 % of control | dose: 150.0 mg/kg/injection, schedule: Q04DX003 (ip), vehicle: acetone 95 % of control

Cc1cc(N(CCOS(C)(=O)=O)CCOS(C)(=O)=O)ccc1C=Nc1ccc(-c2csc(-c3ccccc3)n2)c(Cl)c1
inactive: dose: 20.0 mg/kg/injection, schedule: Q04DX003 (ip), vehicle: Klucel (hydroxypropylcellulose) (HPC) 121 % of control | dose: 60.0 mg/kg/injection, schedule: Q04DX003 (ip), vehicle: Klucel (hydroxypropylcellulose) (HPC) 122 % of control | dose: 80.0 mg/kg/injection, schedule: Q04DX003 (ip), vehicle: Klucel (hydroxypropylcellulose) (HPC) 120 % of control | [7] 122 % of control

O=C(O)CCS(=O)(=O)c1ccc(N(CCCl)CCCl)cc1
inactive: [8] 107 % of control | [9] 102 % of control | [10] 105 % of control

C[C@]12CC[C@H](O)C[C@@H]1CC[C@@H]1[C@@H]2C(=O)C[C@]2(C)C3=CC(=O)O[C@H]3C[C@@H]12
inactive: dose: 5.0 mg/kg/injection, schedule: Q01DX Z (sc), vehicle: steriod suspending solution 94 % of control and 108 % of control | dose: 10.0 mg/kg/injection, schedule: Q01DX Z (sc), vehicle: steriod suspending solution 97 % of control and 100 % of control | dose: 20.0 mg/kg/injection, schedule: Q01DX Z (sc), vehicle: steriod suspending solution 94 % of control and 102 % of control | dose: 40.0 mg/kg/injection, schedule: Q01DX Z (sc), vehicle: steriod suspending solution 94 % of control and 96 % of control and 100 % of control | dose: 80.0 mg/kg/injection, schedule: Q01DX Z (sc), vehicle: steriod suspending solution 104 % of control | dose: 160.0 mg/kg/injection, schedule: Q01DX Z (sc), vehicle: steriod suspending solution 95 % of control | dose: 320.0 mg/kg/injection, schedule: Q01DX Z (sc), vehicle: steriod suspending solution 95 % of control | dose: 640.0 mg/kg/injection, schedule: Q01DX015 (sc), vehicle: steriod suspending solution 100 % of control | dose: 1280.0 mg/kg/injection, schedule: Q01DX015 (sc), vehicle: steriod suspending solution 96 % of control

NC(=S)N/N=C/c1ccc(Br)s1
inactive: [1] 87 % of control | [2] 100 % of control

COc1ccc(N2CSC(=S)N(c3ccc(OC)cc3)C2)cc1
inactive: [3] 96 % of control | [4] 93 % of control | [11] 95 % of control | dose: 400.0 mg/kg/injection, schedule: Q04DX003 (ip), vehicle: saline 91 % of control

OC1CC2CCC(C1)N2CCCN1c2ccccc2Sc2ccc(Cl)cc21 (stereo not drawn)
inactive: dose: 25.0 mg/kg/injection, schedule: Q01DX009 (ip), vehicle: saline with Tween-80 112 % of control | dose: 50.0 mg/kg/injection, schedule: Q01DX009 (ip), vehicle: saline with Tween-80 87 % of control | dose: 50.0 mg/kg/injection, schedule: Q04DX003 (ip), vehicle: saline with Tween-80 97 % of control | [8] 112 % of control | dose: 133.0 mg/kg/injection, schedule: Q04DX003 (ip), vehicle: saline with Tween-80 107 % of control

COC(=O)C1=C(C)NC(=O)NC1c1ccc(OC)cc1 (stereo not drawn)
inactive: [8] 103 % of control | [9] 90 % of control | [10] 90 % of control

CC(C)(CCC(=O)O)[N+](=O)[O-]
inactive: [5] 106 % of control | [6] 105 % of control | dose: 200.0 mg/kg/injection, schedule: Q04DX003 (ip), vehicle: saline 101 % of control

O=C(CCCN1CCC(O)(c2ccc(C(F)(F)F)cc2)CC1)c1ccc(N2CCC(O)CC2)cc1
inactive: dose: 100.0 mg/kg/injection, schedule: Q04DX002 (ip), vehicle: saline with Tween-80 93 % of control | dose: 200.0 mg/kg/injection, schedule: Q04DX002 (ip), vehicle: saline with Tween-80 100 % of control

C=CCNC(=O)/C=C/C(=O)O
inactive: [11] 95 % of control | dose: 200.0 mg/kg/injection, schedule: Q01DX009 (ip), vehicle: saline 93 % of control

OCC1(CO)CCCC2(COC3(CCCCC3)OC2)C1
inactive: [7] 98 % of control | [12] 94 % of control | [13] 94 % of control

CCCCCCCCN(c1ccc(C(=O)O)cc1)S(=O)(=O)c1ccc(C)cc1
inactive: [14] 103 % of control | [15] 100 % of control | [16] 90 % of control

Clc1ccc(OCc2sc3ccc(Br)cc3c2CN2CCOCC2)cc1
inactive: [14] 100 % of control | [7] 94 % of control | [15] 105 % of control | [12] 96 % of control | [16] 95 % of control | [13] 89 % of control
